Results from patent publication US10342766B2, “6-shogaol derivatives and activities thereof” (North Carolina Agricultural and Technical State University, priority 2017, dated 2019).
“Also recorded” adds a separate entry of the source.

How the values were obtained:
heme oxygenase-1 (HO-1) = experiment: Western blotting of HO-1 expression in CCD 841 CoN cells; format: cell-based, human
Description: Human normal colonic epithelial cells (CCD 841 CoN) were grown in Eagle's Minimum Essential Medium with 10% fetal bovine serum and 1% penicillin/streptomycin, and maintained at 37° C. in a 100% humidified atmosphere of 5% CO2 and 95% air. Fresh growth medium was added to the cells every two days until confluent. Cells were planted in 145×20 mm flat-bottomed tissue culture dishes and growth to 70-80% confluence and then treated with compound 27 for various doses and time points. At the end of incubation period, cell lysates were prepared in ice-cold Cell Lysis Buffer (Cell Signaling, Danvers, Mass., United States of America) with 1% protease inhibitor cocktail and 1% phenylmethylsulfonyl fluoride (Sigma, St. Louis, Mo., United States of America). Protein concentrations were measured using BCA Protein Assay Kit (Thermo Scientific, Rockford, Ill., United States of America). […] The bound complexes were detected with SuperSignal Chemiluminescent Substract (Thermo Scientific, Rockford, Ill., United States of America). The immunoblot bands were quantified by densitometry analysis, and the ratio to β-actin was calculated and presented.

[1] = Biotransformation in zebrafish embryos (cysteine conjugates, LC/MS); format: in vivo; conditions: 5 μM in incubation medium, 8 hpf to 24 hpf
Description: Fifty zebrafish embryos at the 8 hour-post-fertilization (hpf) stage were incubated at 28.5° C. in 0.3× Danieau's solution (19.3 mM NaCl, 0.23 mM KCl, 0.13 mM MgSO4, 0.2 mM Ca(NO3)2, 1.7 mM HEPES, pH 7.0) with or without 5 μM 18 and 25-27, respectively. At 24 hpf, embryos were dechorionated manually and the chorions were carefully removed one by one from the culture medium. The zebrafish embryos were harvested and kept at −80° C. till analyzed by LC/MS.
200 μL Sodium acetate buffer solution (pH 5.0) was added to 50 zebrafish embryos. Samples were homogenized for 90 s by an Omni Bead Ruptor Homogenizer (Kennesaw, Ga., United States of America). 10 μL 10% ascorbic acid and 300 μL sodium acetate buffer were added to the homogenates. The mixture was incubated in the presence of β-glucuronidase (250 U) and sulfatase (3 U) at 37° C. for 45 min, and then 600 μL MeOH with 1% acetic acid was added. The resulting mixture was vortexed for 30 s and then centrifuged at 17000 g for 10 min. The supernatant was removed and evaporated under a gentle stream of nitrogen. The residue was reconstituted in 150 μL 90% MeOH with 0.2% acetic acid (AA), and 10 μL was analyzed directly by LC/MS.
LC/MS analysis was carried out with a Thermo-Finnigan Spectra System, which consisted of an Accela high speed MS pump, an Accela refrigerated autosampler, and an LCQ Fleet ion trap mass detector (Thermo Electron, San Jose, Calif., United States of America) incorporated with an electrospray ionization (ESI) interface. A Gemini-NX C18 column (150 mm×4.6 mm i.d., 5 μm; Phenomenex, Torrance, Calif., United States of America) was used for separation at a flow rate of 0.3 mL/min. The column was eluted with 100% A (5% aqueous methanol with 0.2% formic acid) for 1 min, followed by linear increases in B (95% aqueous methanol with 0.2% formic acid) to 55% from 1 to 4 min, to 85% from 4 to 25 min, then to 100% B from 25 to 30 min, and then with 100% B from 30 to 35 min. The column was then re-equilibrated with 100% A for 5 min. The LC eluent was introduced into the ESI interface. The positive ion polarity mode was set for the ESI source with the voltage on the ESI interface maintained at approximately 4.6 kV. Nitrogen gas was used as the sheath gas and auxiliary gas. Optimized source parameters, including capillary temperature (260° C.), sheath gas flow rate (31 arbitrary units), auxiliary gas flow rate (16 units), tube lens (34 V), and capillary voltage 9 V, were tuned using authentic samples. The collision-induced dissociation (CID) was conducted with an isolation width 2 Da and normalized collision energy of 35 for MS^2. The mass range was measured from 100 to 800 m/z. Data acquisition was performed with Xcalibur version 2.0 (Thermo Electron, San Jose, Calif., United States of America).

[2] = test system: human colon cancer cells HT-29; experiment: MTT growth inhibition, HT-29; format: cell-based; conditions: 24 hours
Description: Cell viability was determined by an MTT colorimetric assay. Briefly, human colon cancer cells HCT-116 or HT-29, were plated in 96-well microtiter plates with 3000 cells/well and allowed to attach for 24 hours at 37° C. and 5% CO2. The test compounds (in DMSO) were added to cell culture medium to desired final concentrations (final DMSO concentrations for control and treatments were 0.1%). After the cells were cultured for 24 hours, the medium was aspirated and cells were treated with 200 μL fresh medium containing 2.41 mmol/L MTT. After incubation for 3 hours at 37° C., the medium containing MTT was aspirated, 100 μL of DMSO was added to solubilize the formazan precipitate, and the plates were shaken gently for an hour at room temperature. Absorbance values were derived from the plate reading at 550 nm on a Biotek (Winooski, Vt., United States of America) microtiter plate reader. The reading reflected the number of viable cells and was expressed as a percentage of viable cells in the control. CCD-18Co cells were grown in EMEM. Both HCT-116 and HT-29 cells were cultured in McCoy's 5A medium. All of the above media were supplemented with 10% fetal bovine serum, 1% penicillin/streptomycin, and 1% glutamine, and the cells were kept in a 37° C. incubator with 95% humidity and 5% CO2.

IC50 [2]: 78.4 µM
SMILES: CCCCCCCC(=O)/C=C/c1ccc(O)c(O)c1 [Compound 27]
HO-1 expression, time dependence (heme oxygenase-1 (HO-1); 10 μM for 3, 6, 12 and 24 h, vs control (0 h)): significantly increased HO-1 expression; also recorded: increased HO-1 expression in a time-dependent manner | HO-1 protein expression, dose dependence (heme oxygenase-1 (HO-1); 5, 10 and 20 μM for 24 h, vs untreated control): significantly increased HO-1 protein expression; also recorded: increased HO-1 expression in a dose-dependent manner | Cysteine conjugates found in zebrafish embryos [1]: four cysteine conjugates 36, 36a, 37, and 37b were found
